These compounds were tested against Nonstructural protein 3 (Zika virus) (UniProt A0A024AXB9) (assay: Functional biochemical assay to identify treatments for viral infectious disease that targets Zika NS2B-NS3 protease. Utilizing a direct enzyme activity measurement method, reading the fluorescence intensity is used to characterize the relative potency of inhibitors as % inhibition. Synthetic construct has been made based on Zika virus (strain PRVABC59) by Centre for Medicines Discovery, University of Oxford, and the assay has been performed by Stanford University.The protocol is publicly available: dx.doi.org/10.17504/protocols.io.4r3l29533v1y/v1). Conditions: Concentration 25.0 uM, Number of replicates 1.0.
Sequence of Nonstructural protein 3 (Zika virus) (A0A024AXB9 as listed by the source): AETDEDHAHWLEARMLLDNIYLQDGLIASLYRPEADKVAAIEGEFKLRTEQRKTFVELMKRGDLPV

Compound	inhibition [%]
Cc1cc(NS(=O)(=O)c2ccc(S(=O)(=O)F)cc2)c[nH]c1=O	60.6
CC[C@H]1CO[C@H](C)CN1c1ccc(C=O)cn1	61.5
Nc1ccc2ccc(B(O)O)cc2c1	81
Cc1c(C=O)c2ccccn2c1C(=O)c1ccncc1	48.3
O=Cc1ccc(N2CCC(C(=O)O)CC2)o1	55.4
O=Cc1nc(-c2ccccc2Cl)n2ccccc12	48.3
CN(C)c1ccc(C=C(C#N)C(N)=O)cc1	50.7
O=Cc1ccc(N2CCCCCC2)cc1	46.5
Cc1c(C=O)c2ccccn2c1C#N	48.9
O=Cc1ccc(N2CCC(C(=O)O)CC2)cc1	66
Cc1nc(C=O)c2ccccn12	45
O=Cc1ccc(N2CCCCC2)cc1	49
